Source: patent publication US20240199701A1, “IMMUNOMODULATORS” (BRISTOL-MYERS SQUIBB COMPANY, priority 2021, published 2024)
Where two headings read alike, the source gives them in different places. Starred links: 1 amine or outer side, 2 acyl side, 3 side chain; linkers in the order of their positions; H or OH if unused. Positions of bridges follow the written chain, without caps; N, C: chain ends. Non-standard residues stand in square brackets, D forms with d. Groups on a side chain read outwards from the residue. Primed or numbered codes have the meaning given here. *: point of attachment. Trp(1-CH2CO) = O=C([C@H](Cc1cn(CC(=O)[*:3])c2ccccc12)N[*:1])[*:2]; Pra′ = C-terminal residue bearing an alkyne, joined as triazole; Hexadecanoyl(16-SO3H) = O=C(CCCCCCCCCCCCCCCS(=O)(=O)O)*; γGlu = O=C(O)[C@H](CCC(=O)[*:2])N[*:1]; Hyp = O=C(O)[C@@H]1C[C@@H](O)CN1; NMeNle = CCCC[C@H](NC)C(=O)O; PEG11′ = not defined here; NMeA = CN[C@@H](C)C(=O)O; Dab = NCC[C@H](N)C(=O)O; Dap = NC[C@H](N)C(=O)O

Assays:
[1] = molecular target: T1, 293T-hPD-L1 cells (binding of PE-labeled PD-1-Ig to human PD-L1) (Homo sapiens, UniProt Q9NZQ7); test: 293T-hPD-L1 Cell Binding High-Content Screening Assay (CBA); assay type: cell-based; settings: 293T cells over-expressing human PD-L1, PE-labeled PD-1-Ig 0.5 nM, 10% fetal calf serum; read-out: 293T-hPD-L1_PD-1 IC50
T1 construct: expressed in transfected cells
Experimental: 293T-hPD-L1 Cell Binding High-Content Screening Assay (CBA). Phycoerythrin (PE) was covalently linked to the Ig epitope tag of human PD-1-Ig and fluorescently-labeled PD-1-Ig was used for binding studies with a human embryonic kidney cell line (293T) stably over-expressing human PD-L1 (293T-hPD-L1). Briefly, 2×10^3 293T-hPD-L1 cells were seeded into 384 well plates in 20 μl of DMEM supplemented with 10% fetal calf serum and cultured overnight. 125 nl of compound was added to cells followed by 5 μl of PE-labeled PD-1-Ig (0.5 nM final), diluted in DMEM supplemented with 10% fetal calf serum, followed by incubation at 37° C. for Ih. Cells were washed 3× in 100 μl dPBS followed by fixation with 30 μl of 4% paraformaldehyde in dPBS containing 10 μg/ml Hoechst 33342 for 30 min at room temperature. Cells were washed 3× in 100 μl of dPBS followed by final addition of 15 μl of dPBS. Data was collected and processed using a Cell Insight NXT High Content Imager and associated software.

PD-1-Ig/PD-L1-His = molecular target: T2, PD-1-Ig/PD-L1-His (Homo sapiens, UniProt Q9NZQ7); test: PD-1/PD-L1 Homogenous Time-Resolved Fluorescence (HTRF) binding assay
T2 construct: hPDL1(19-239)-TVMV-His; TVMV protease cleavage site (C); made in house; host or cells: HEK293T
Text: The ability of the macrocyclic peptides of the present disclosure to bind to PD-L1 was investigated using a PD-1/PD-L1 Homogenous Time-Resolved Fluorescence (HTRF) binding assay.
Homogenous Time-Resolved Fluorescence (HTRF) Assays of Binding of Soluble PD-1 to Soluble PD-L1. Soluble PD-1 and soluble PD-L1 refers to proteins with carboxyl-end truncations that remove the transmembrane-spanning regions and are fused to heterologous sequences, specifically the Fc portion of the human immunoglobulin G sequence (Ig) or the hexahistidine epitope tag (His). All binding studies were performed in an HTRF assay buffer consisting of dPBS supplemented with 0.1% (w/v) bovine serum albumin and 0.05% (v/v) Tween-20. For the PD-1-Ig/PD-L1-His binding assay, inhibitors were pre-incubated with PD-L1-His (10 nM final) for 15 m in 4 μl of assay buffer, followed by addition of PD-1-Ig (20 nM final) in 1 μl of assay buffer and further incubation for 15 m. PD-L1 fusion proteins from either human, cynomologous macaques, mouse, or other species were used. HTRF detection was achieved using europium crypate-labeled anti-Ig monoclonal antibody (1 nM final) and allophycocyanin (APC) labeled anti-His monoclonal antibody (20 nM final). Antibodies were diluted in HTRF detection buffer and 5 μl was dispensed on top of binding reaction. The reaction was allowed to equilibrate for 30 minutes and signal (665 nm/620 nm ratio) was obtained using an EnVision fluorometer. Additional binding assays were established between PD-1-Ig/PD-L2-His (20 and 5 nM, respectively), CD80-His/PD-L1-Ig (100 and 10 nM, respectively) and CD80-His/CTLA4-Ig (10 and 5 nM, respectively).
Recombinant Proteins. Carboxyl-truncated human PD-1 (amino acids 25-167) with a C-terminal human Ig epitope tag [hPD-1 (25-167)-3S-IG] and human PD-L1 (amino acids 18-239) with a C-terminal His epitope tag [hPD-L1(19-239)-tobacco vein mottling virus protease cleavage site (TVMV)-His] were expressed in HEK293T cells and purified sequentially by recombinant Protein A affinity chromatography and size exclusion chromatography. Human PD-L2-His (Sino Biologicals), CD80-His (Sino Biologicals), CTLA4-Ig (RnD Systems) were all obtained through commercial sources.

[2] = molecular target: Recombinant Human PD-L1-TVMV-His, hPDL1(19-239)-TVMV-His (human) (UniProt Q9NZQ7); test: HTRF competition, inhibits PD-1-Ig binding to PD-L1-His
[3] = soluble hPD-1-Ig / hPD-L1-His, HTRF, read-out: LE HTRF hPD1 hPDL1 IC50

T1 sequence (Q9NZQ7 19-290): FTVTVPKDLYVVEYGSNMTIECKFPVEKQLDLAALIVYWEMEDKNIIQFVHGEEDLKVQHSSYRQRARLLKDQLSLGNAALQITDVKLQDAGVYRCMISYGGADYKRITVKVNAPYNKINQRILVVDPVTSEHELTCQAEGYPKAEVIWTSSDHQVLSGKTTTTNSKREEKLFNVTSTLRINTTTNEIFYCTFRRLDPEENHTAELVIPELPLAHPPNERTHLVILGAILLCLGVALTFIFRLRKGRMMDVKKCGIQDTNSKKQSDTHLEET
Sequence of Recombinant Human PD-L1-TVMV-His, hPDL1(19-239)-TVMV-His (human) (Q9NZQ7 other isoform, or with tags, fused parts or gaps limits assumed): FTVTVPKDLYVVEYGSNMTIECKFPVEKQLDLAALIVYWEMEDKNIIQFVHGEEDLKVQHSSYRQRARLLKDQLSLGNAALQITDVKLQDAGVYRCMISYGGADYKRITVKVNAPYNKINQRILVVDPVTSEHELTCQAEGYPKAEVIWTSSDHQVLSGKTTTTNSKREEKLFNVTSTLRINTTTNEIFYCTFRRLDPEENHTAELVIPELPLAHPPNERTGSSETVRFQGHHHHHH

IC50 [1] [nM]	IC50 (PD-1-Ig/PD-L1-His; [3]) [nM]	Molecule	also measured
	38.1	CCCC[C@H]1C(=O)N(C)[C@@H](CCCC)C(=O)N[C@@H](CC(C)C)C(=O)N[C@H](C(=O)N[C@@H](CCCN)C(=O)N[C@@H](Cc2cn(CCOCCOCCOCCOCCOCCOCCOCCOCCOCCOCCOCCNC(=O)CC[C@H](NC(=O)CCCCCCCCCCCCCCCS(=O)(=O)O)C(=O)O)nn2)C(=O)O)CSCC(=O)N[C@@H](Cc2ccc(O)cc2)C(=O)N(C)[C@@H](C)C(=O)N[C@@H](CC(N)=O)C(=O)N2CCC[C@H]2C(=O)N[C@@H](CN)C(=O)N[C@@H](CC(C)C)C(=O)N2C[C@H](O)C[C@H]2C(=O)N[C@@H](Cc2c[nH]c3ccccc23)C(=O)N[C@@H](CCN)C(=O)N[C@@H](Cc2cn(CC(=O)O)c3ccccc23)C(=O)N1C [Example 1003]	
61.8		CCCC[C@H]1C(=O)N(C)[C@@H](CCCC)C(=O)N[C@@H](CC(C)C)C(=O)N[C@H](C(=O)NCC(=O)N[C@@H](Cc2cn(CCOCCOCCNC(=O)[C@H](CCC(=O)O)NC(=O)CC[C@H](NC(=O)CCCCCCCCCCCCCCCS(=O)(=O)O)C(=O)O)nn2)C(=O)O)CSCC(=O)N[C@@H](Cc2ccc(O)cc2)C(=O)N(C)[C@@H](C)C(=O)N[C@@H](CC(N)=O)C(=O)N2CCC[C@H]2C(=O)N[C@@H](CN)C(=O)N[C@@H](CC(C)C)C(=O)N2C[C@H](O)C[C@H]2C(=O)N[C@@H](Cc2c[nH]c3ccccc23)C(=O)N[C@@H](CCN)C(=O)N[C@@H](Cc2cn(CC(=O)O)c3ccccc23)C(=O)N1C [Example 1006]	
0.13		CCCC[C@H]1C(=O)N(C)[C@@H](CCCC)C(=O)N[C@@H](CC(C)C)C(=O)N[C@H](C(=O)NCC(=O)N[C@@H](Cc2cn(CCOCCOCCOCCNC(=O)CC[C@H](NC(=O)CCCCCCCCCCCS(=O)(=O)O)C(=O)O)nn2)C(=O)O)CSCC(=O)N[C@@H](Cc2ccc(O)cc2)C(=O)N(C)[C@@H](C)C(=O)N[C@@H](CC(N)=O)C(=O)N2CCC[C@H]2C(=O)N[C@@H](CN)C(=O)N[C@@H](CC(C)C)C(=O)N2C[C@H](O)C[C@H]2C(=O)N[C@@H](Cc2c[nH]c3ccccc23)C(=O)N[C@@H](CCN)C(=O)N[C@@H](Cc2cn(CC(=O)O)c3ccccc23)C(=O)N1C [Example 1010]	

Continued, molecule first:

Molecule	IC50 [1] [nM]	IC50 (PD-1-Ig/PD-L1-His; [3]) [nM]	also measured
CCCC[C@H]1C(=O)N(C)[C@@H](CCCC)C(=O)N[C@@H](CC(C)C)C(=O)N[C@H](C(=O)N[C@@H](C)C(=O)N[C@@H](Cc2cn(CCOCCOCCOCCOCCOCCOCCOCCOCCOCCOCCOCCNC(=O)CC[C@H](NC(=O)CCCCCCCCCCCCCCCS(=O)(=O)O)C(=O)O)nn2)C(=O)O)CSCC(=O)N[C@@H](Cc2ccc(O)cc2)C(=O)N(C)[C@@H](C)C(=O)N[C@@H](CC(N)=O)C(=O)N2CCC[C@H]2C(=O)N[C@@H](CN)C(=O)N[C@@H](CC(C)C)C(=O)N2C[C@H](O)C[C@H]2C(=O)N[C@@H](Cc2c[nH]c3ccccc23)C(=O)N[C@@H](CCN)C(=O)N[C@@H](Cc2cn(CC(=O)O)c3ccccc23)C(=O)N1C [Example 1002]	0.1	2	
CCCC[C@H]1C(=O)N(C)[C@@H](CCCC)C(=O)N[C@@H](CC(C)C)C(=O)N[C@H](C(=O)NCC(=O)N[C@@H](Cc2cn(CCOCCOCCOCCOCCOCCOCCOCCOCCOCCOCCOCCNC(=O)CC[C@H](NC(=O)CCCCCCCCCCCCCCCP(=O)(O)O)C(=O)O)nn2)C(=O)O)CSCC(=O)N[C@@H](Cc2ccc(O)cc2)C(=O)N(C)[C@@H](C)C(=O)N[C@@H](CC(N)=O)C(=O)N2CCC[C@H]2C(=O)N[C@@H](CN)C(=O)N[C@@H](CC(C)C)C(=O)N2C[C@H](O)C[C@H]2C(=O)N[C@@H](Cc2c[nH]c3ccccc23)C(=O)N[C@@H](CCN)C(=O)N[C@@H](Cc2cn(CC(=O)O)c3ccccc23)C(=O)N1C [Example 1007]			IC50 (PD-1-Ig/PD-L1-His): 14 nM
CCCC[C@H]1C(=O)N(C)[C@@H](CCCC)C(=O)N[C@@H](CC(C)C)C(=O)N[C@H](C(=O)NCC(=O)N[C@@H](Cc2cn(CCOCCOCCOCCOCCOCCOCCOCCOCCOCCOCCOCCNC(=O)CC[C@H](NC(=O)CCCCCCCCCCCCCCCS(=O)(=O)O)C(=O)O)nn2)C(=O)O)CSCC(=O)N[C@@H](Cc2ccc(O)cc2)C(=O)N(C)[C@@H](C)C(=O)N[C@@H](CC(N)=O)C(=O)N2CCC[C@H]2C(=O)N[C@@H](CN)C(=O)N[C@@H](CC(C)C)C(=O)N2C[C@H](O)C[C@H]2C(=O)N[C@@H](Cc2c[nH]c3ccccc23)C(=O)N[C@@H](CCN)C(=O)N[C@@H](Cc2cn(CC(=O)O)c3ccccc23)C(=O)N1C [Example 1008]	1.2	7.3	
{CH2CO}-Y[NMeA]NP[Dap]L[Hyp]W[Dab][Trp(1-CH2CO)][NMeNle][NMeNle]LC[Pra′]([PEG11′-γGlu-Hexadecanoyl(16-SO3H)])-OH (thioether N-14; also: Pra linked to Peg11 via triazole) [Example 1001]			IC50 [2]: 0.6 nM
